Measured values from paper PMC8997848, “How Cargo Identity Alters the Uptake of Cell-Penetrating Peptide (CPP)/Cargo Complexes: A Study on the Effect of Net Cargo Charge and Length” (Cells, 2022).

Experiments:
[1] = tested on: HeLa cells; experiment: alamarBlue cell viability assay; type: cell-based; settings: 37 °C, 4 h (2 h in method and Figure 2), then alamarBlue 4 h, normalized to no peptide control, triplicate; for effect on cellular viability at 5 µM: HeLa cells, 5 µM peptide; for decrease in cellular viability: HeLa cells, 10, 20, and 30 μM peptide
Description: Two days prior to the experiment, HeLa cells were plated at a density of 1 × 10^5 cells/well in a 96 well plate. Cells were washed once with PBS and incubated with peptide solutions for 2 h at 37 °C. Following this incubation period, cells were washed with ECB and incubated with a mixture of 10 μL alamarBlue Viability Reagent (ThermoFisher Scientific, Carlsbad, CA, USA) in 90 μL serum-free media for 4 h at 37 °C. The fluorescent signal of alamarBlue was measured using fluorometry with an excitation filter of 532 nm and an emission filter of […]. A no peptide control was also performed to normalize the fluorescent signals. Signals were normalized using Equation (2):Normalized Cell Viability = F/C(2) where F denotes the fluorescent signal of cells incubated with peptide and C denotes the fluorescent signal of cells incubated with no peptide. The reported data are the average of triplicate samples.

[2] = tested on: HeLa cells; experiment: Quantification of CPP and CPP/cargo uptake by fluorometry of FAM signal in cell lysate; type: cell-based; settings: for time dependence of uptake (single factor ANOVA): 10 µM peptide, 10, 20, 40, 60, 100, 120 min, triplicate (Tables S1, S6); for time-dependent analysis of peptide uptake (in words): 10-120 min, triplicate (Figures S5, S7); for effect of net cargo length and arginine position on cellular uptake (one-way ANOVA) / uptake of CPP/cargo complex compared to the H1 CPP alone (in words): 10 µM; for effect of net cargo length and arginine position on cellular uptake (one-way ANOVA): 1 h, cargoes of +2 charge, 4 or 8 residues, triplicate (Figure 1B, Table S3); for uptake of CPP/cargo complex compared to the H1 CPP alone (in words): uptake normalized against H1, triplicate (Figure 1A)
Description: The quantification of peptide uptake was performed using a protocol previously utilized by Safa et al. and Vaithiyanathan et al.. Three days prior to the experiment, HeLa cells were seeded at a density of 1 × 10^4 cells/mL in 12 well plates. Prior to experiments, peptides were reconstituted in sodium phosphate buffer (2.26 mM NaH2PO4·H2O and 8.43 mM Na2HPO4·7H2O) and the peptide concentration was determined using a NanoDrop at the wavelength of 492 nm using the UV-vis function. On the day of the experiment, peptides were diluted to the desired final concentration with extracellular buffer, ECB (5.036 mM HEPES pH 7.4, 136.89 mM NaCl, 2.68 mM KCl, 2.066 mM MgCl2·6H2O, 1.8 mM, CaCl2·2H2O, and 5.55 mM glucose). Cells were washed once with PBS followed by peptide incubation (500 μL/well) at 37 °C. Plates were wrapped in aluminum foil during incubation to avoid deactivating the FAM tag on the peptide. Following the incubation, the peptide solutions were removed, and cells were washed twice with ECB. Cells were then trypsinized (250 μL/well) for 10 min at room temperature. The cells were resuspended in ECB (1 mL/well) and transferred to microcentrifuge tubes. The samples were centrifuged at 1800 rcf for 2.5 min. The supernatant was removed, and the isolated cells were lysed with 0.1 M NaOH (250 μL/tube). Samples were centrifuged again at 14,000 rcf for 5 min to remove any remaining protein bound to the membranes before transferring 150 μL of clarified lysate to a 96 well plate. Fluorometry (Perkin Elmer (Waltham, MA, USA) Wallac 1420 VICTOR2 multilabel HTS counter) was used to quantify the signal resulting from the FAM tag using an excitation filter of 490 nm and an emission filter of 535 nm. For each experiment, a no peptide control (cells incubated with ECB only) was performed. To measure the background signal of each peptide, the peptide solutions used in each experiment were analyzed by fluorometry to normalize the fluorescent signal for each sample. Signals were normalized using Equation (1):Normalized Fluorescence = 1000 × (F − C)/(P − B)(1) where F denotes the fluorescent signal of cells incubated with peptide, C denotes the fluorescent signal of cells incubated with no peptide, P denotes the average fluorescent signal of the peptide in suspension, and B denotes the average fluorescent signal of the ECB. Reported data for each experiment is the average of triplicate samples. Statistical analysis was carried out using JMP Pro 16 software (SAS Institute).

[3] = tested on: HeLa cells; experiment: Live-cell fluorescent microscopy with line scans of intracellular peptide distribution; type: cell-based; settings: for cellular uptake seen by fluorescence microscopy / intracellular distribution of fluorescence: 10 μM peptide, 60 min, 37 °C; for cellular uptake seen by fluorescence microscopy: FITC filter (Figure 3); for intracellular distribution of fluorescence: images and line scans across individual cells (Figures 3, 4, S8)
Description: One day prior to the experiment, HeLa cells were seeded in 8-chambered Falcon Culture Slides (Corning) at a density of 3 × 10^4 cells/mL. On the day of the experiment, cells were washed once with ECB before incubation with 10 μM peptide solution (500 μL/well) for 1 h at 37 °C. Following incubation, cells were washed twice with ECB then incubated with 8 μM Hoechst 3342 nuclei acid stain (ThermoFisher Scientific, Carlsbad, CA, USA) for 20 min at room temperature. Cellular fluorescence was visualized using a Leica DMi8 inverted microscope outfitted with a 40× objective (Leica N PLAN L, 0.55× correction). Images were acquired using the digital CMOS camera C11440 (Hamamatsu Photonics K.K., Japan) with a fixed exposure time of 500 ms for the FITC filter, 150 ms for the DAPI filter, and 20 ms for brightfield. The following excitation/emission filters (Chroma Tech. Corp, Bellows Falls, VT, USA) were used to image the device: fluorescein isothiocyanate-FITC (λex 440–520 nm and λem 497–557 nm) for capturing the signal from FAM and DAPI (λex 335–385 nm and λem 405–465 nm) for capturing the signal from the Hoescht stain. Image acquisition was controlled using the Leica Application Suite software (LAS X, version 3.7.4.23463), where all images were recorded using the same parameters. The imaging was followed by quantitative analysis, where a manual line scan region of interest (ROI) was drawn across the center of the cells to quantify their fluorescent signals. Random ROIs were also drawn in free space not containing cells to measure background noise for each image. The fluorescent values were normalized by subtracting the noise from the measured signal.

[4] = cited from earlier work
Text: With the majority of well characterized CPPs being unstructured, and considering the differences in uptake levels, cytotoxicity, and intracellular stability that has been observed when comparing unstructured and structured CPPs, it was important to compare the effects of net cargo charge and length on both unstructured (nona-arginine, R1) and structured (RWRWR, H1) CPPs. To examine the ...

[5] = tested on: HeLa cells; settings: cited from earlier work
Text: In addition to improving the permeability and stability of the CPPs themselves, there is significant interest in utilizing known CPPs to deliver bioactive cargoes, such as nanoparticles, therapeutics, or biosensors, to cells. CPPs have found great success of late as delivery vehicles for peptide-based therapeutics, such as PROTACs (proteolysis targeting chimeras), which facilitate the degradation of “undruggable” proteins by selectively ubiquitinating the target protein for proteasome-mediated degradation. […] With the majority of well characterized CPPs being unstructured, and considering the differences in uptake levels, cytotoxicity, and intracellular stability that has been observed when comparing unstructured and structured CPPs, it was important to compare the effects of net cargo charge and length on both unstructured (nona-arginine, R1) and structured (RWRWR, H1) CPPs. To examine the ...

[6] = 10 µM peptide, FAM fluorometry of lysate
[7] = 10 µM peptide, 60 min, 37 °C, FAM fluorometry of lysate, triplicate (Figure 5)

With “RWVRVpGO(FAM)WIRQ-GRGR [H2, H1 CPP with 4-residue cargo GRGR, net charge +2]” the “effect on cellular viability at 5 µM” value [1] was “did not result in a decrease in cellular viability”, the “decrease in cellular viability” value [1] was ~ 5% and the “time dependence of uptake (single factor ANOVA)” value (from here on “time dependence of uptake”) [2] was “demonstrate time dependence”. The “time-dependent analysis of peptide uptake (in words)” value (“time-dependent analysis” below) [2, 6] was “greatest penetration” and the “effect of net cargo length and arginine position on cellular uptake (one-way ANOVA)” value (“effect … (one-way ANOVA)” for short) [2] was “no significant difference in cellular uptake”.
In the case of “RWVRVpGO(FAM)WIRQ-GRGRGRGR [H5, H1 CPP with 8-residue cargo, net charge +4]”, the “effect on cellular viability at 5 µM” value [1] is reported as “did not result in a decrease in cellular viability”, the “decrease in cellular viability” value [1] is reported as ~ 5% and the “increase in CPP/cargo uptake on increasing arginine residues from 2 (H2) to 4 (H5)” value ([2]; 10 µM peptide in ECB, 60 min, 37 °C, trypsinized, lysed in 0.1 M NaOH, FAM fluorometry ex 490/em 535 nm, average of triplicate, compared to H2) is reported as 58%. For the same substance, the “time dependence of uptake” value [2] was “demonstrate time dependence”, the “time-dependent analysis” value [2, 6] was “greatest penetration” and the “cellular uptake seen by fluorescence microscopy” value (shortened to “cellular uptake seen”) [3] was “successful cellular uptake”. For the same substance, the “intracellular distribution of fluorescence” value (“intracellular distribution” below) [3] was “punctate regions of increased fluorescence”, the “cell-to-cell heterogeneity of uptake compared to cells incubated with H1” value ([3]; 10 μM, average fluorescence intensity in individual cells (Figure S6)) was “substantially higher heterogeneity” and the “average uptake from single-cell fluorescence intensity compared to H1” value ([3]; 10 μM, line scans across 20 single cells, normalized against background (Figure S6)) was “substantially higher average uptake”.
With “RWVRVpGO(FAM)WIRQ-GEGE [H4, H1 CPP with 4-residue cargo GEGE, net charge −2]” the “time dependence of uptake” value [2] was “demonstrate time dependence” and the “uptake of CPP/cargo complex compared to the H1 CPP alone (in words)” value ([2]; 60 min, 37 °C) was “diminished uptake”.
For “RWVRVpGO(FAM)WIRQ-GGGGGGGG [H6, H1 CPP with 8-residue cargo, net charge 0]”, the “time dependence of uptake” value [2] was “demonstrate time dependence” and the “uptake of CPP/cargo complex compared to the H1 CPP alone (in words)” value ([2]; 60 min, 37 °C) was “diminished uptake”.
For “RWVRVpGO(FAM)WIRQ [H1, RWRWR β-hairpin CPP, FAM on ornithine side chain]”, the “effect on cellular viability at 5 µM” value [1] is given as “did not result in a decrease in cellular viability”, the “decrease in cellular viability” value [1] is given as ~ 5% and the “increased intracellular stability compared to nona-arginine CPP” value [4] is given as 20 fold. For the same substance, the “time needed for uptake / sufficient internalization” value ([5]; HeLa cells) was < 10 min, the “time dependence of uptake” value [2] was “demonstrate time dependence” and the “time-dependent analysis” value [2, 6] was “greatest penetration”. The “cellular uptake seen” value [3] was “successful cellular uptake” and the “intracellular distribution” value [3] was “evenly distributed throughout the cell”.
In the case of “RWVRVpGO(FAM)WIRQ-GGGGGRGR [H8, H1 CPP with 8-residue +2 cargo, arginines closer to the C-terminus]”, the “effect … (one-way ANOVA)” value [2] is reported as “no significant difference in cellular uptake”.
With “RWVRVpGO(FAM)WIRQ-GGGG [H3, H1 CPP with 4-residue cargo GGGG, net charge 0]” the “time dependence of uptake” value [2] was “no time dependence” and the “uptake of CPP/cargo complex compared to the H1 CPP alone (in words)” value ([2]; 60 min, 37 °C) was “diminished uptake”.
In the case of “FAM-RRRRRRRRR-GRGR [R2, nona-arginine CPP with 4-residue cargo GRGR, net charge +2]”, the “time dependence of uptake” value [2] is reported as “time-dependent”, the “time-dependent analysis” value [2, 6] is reported as “greater uptake that the R1 CPP” and the “increase in uptake compared to counterpart with H1 CPP (H2 and H5, respectively)” value [2, 7] is reported as 140%. The “increase in uptake compared to the R1 CPP” value [2, 7] was 29%.
In the case of “RWVRVpGO(FAM)WIRQ-GRGRGGGG [H9, H1 CPP with 8-residue +2 cargo, arginines closer to the N-terminus]”, the “effect … (one-way ANOVA)” value [2] is reported as “no significant difference in cellular uptake”.
With “FAM-RRRRRRRRR-GGGGGGGG [R4, nona-arginine CPP with 8-residue neutral cargo]” the “decrease in cellular internalization compared to R1 CPP” value [2, 7] was 50%.
In the case of “RWVRVpGO(FAM)WIRQ-GEGEGEGE [H7, H1 CPP with 8-residue cargo, net charge −4]”, the “time dependence of uptake” value [2] is reported as “no time dependence”, the “uptake of CPP/cargo complex compared to the H1 CPP alone (in words)” value ([2]; 60 min, 37 °C) is reported as “diminished uptake” and the “cellular uptake seen” value [3] is reported as “impermeability”.
In the case of “FAM-RRRRRRRRR-GRGRGRGR [R3, nona-arginine CPP with 8-residue cargo, net charge +4]”, the “time dependence of uptake” value [2] is reported as “time-dependent”, the “time-dependent analysis” value [2, 6] is reported as “greater uptake that the R1 CPP” and the “increase in uptake compared to counterpart with H1 CPP (H2 and H5, respectively)” value [2, 7] is reported as 140%. The “increase in uptake compared to the R1 CPP” value [2, 7] was 103%.
In the case of “FAM-RRRRRRRRR [R1, unstructured nona-arginine CPP, FAM labelled; commercial peptide ARG from AnaSpec, reference compound]”, the “uptake efficiency compared to the RWRWR (H1) CPP” value [5] is given as 2 fold and the “intracellular distribution” value [3] is given as “punctate regions”.
